Earlier results as cited in US20070266895A1, “Aliphatic Hydrocarbon Soluble Red Dyes” (priority 2004, published 2007).

- direct solubility in essentially aliphatic hydrocarbon based fuels (diesel or home heating oil): virtually no direct solubility
- direct solubility in aromatic hydrocarbon containing gasolines (dry powder dye): limited direct solubility
SMILES: Cc1ccccc1/N=N/c1ccc(/N=N/c2c(O)ccc3ccccc23)c(C)c1 [C.I. Solvent Red 24]
